The source of these data is patent US9034895B2, “Composition and methods for treating glioblastoma” (University of Washington Through its Center for …, priority 2010, dated 2015).

Series [1] has as its system mouse neurons in primary culture. Description: Toxic profile in neurons in primary culture. The class given is cell-based.
The subject of the next series is U251, A172 and GBM8. Description: Toxic profile in human astrocytoma cell lines. The class given is cell-based. To be noted: range over the three cell lines (FIG. 4), read-out: potency at killing human astrocytoma cell lines U251, A172 and GBM8. How it is done: Cells were plated media supplemented with 10% serum in 96-well plates (10^4 cells per wellI; 0.1 ml per well). Once they reached ˜70% confluence, they were rinsed with PBS and kept for an additional 24 hrs in media supplemented with 1% serum, at which time drugs or vehicle (DMSO, 0.1%, prepared in 10 μl serum-free media) were directly added to each well. After 3 days, cell viability was assessed using the Cell Proliferation Reagent WST-1 (Roche, Indianapolis, Ind.). Briefly, WST-1 reagent (10 μl) was added to each well for 3 hrs at 37° C. with 5% CO2 and WST-1 products were read at 450 nm using Packard SpectraCount™.
JWH-451 was tested for toxicity in cells expressing GPR124.

The next series deals with T1, CB1 (Mus musculus, UniProt P47746).
T1 construct: plasmids containing full coding region of mouse CB1 and CB2; expressed in transfected cells
Description: Radioligand competition binding, [3H]-CP55940, CB1-expressing HEK293 membranes. How it is done:
Stable CB1 and CB2 expressing HEK293 cell lines were generated using plasmids containing full coding region of mouse CB1 and CB2.
Fragments were amplified from total RNA of cell lines by reverse transcriptase-polymerase chain reaction (RT-PCR). Sequence was confirmed and the fragment was cloned into the EcoRI site of the pIRES2-eGFP-express vector. Cells were grown to approximately 80% confluence in 10 cm cell culture dishes, transfected with the cDNA pIRES-eGFP-vector containing the murine CB1 or CB2 receptor using LipofectAMINE™ 2000 reagent in the serum-free media Opti-MEM 1 according to the manufacturer's description. Cells were subject to FACS sorting 48 h after transfection and single cell sorted based on dsRed expression into 96-well plates. Of the dsRed expressing positive clones, 3 were validated for CB1 and CB2 protein expression by radioligand binding analysis (methods discussed below).
Cells were grown to 90% confluence, rinsed twice with 1×PBS and stored at −80° C. until further use. To prepare crude cellular membrane fractions, dishes were removed from −80° C. and thawed at room temperature for 5 min. Once thawed, cells were lysed with ice-cold homogenization buffer (50 mM Tris, 1 mM EDTA, 3 mM MgCl2) and gently scraped from the dish. Total cell lysates from 3-5 dishes were collected on ice in 3 ml of ice-cold homogenization buffer. Cells were homogenized at 6,500 rpm (PRO Scientific, Oxford, Conn.) twice for 10 sec and centrifuged at 11,500 rpm for 20 min at 4° C. Supernatants were discarded and cell pellets were resuspended in homogenization buffer and triturated 10 times in ice-cold homogenization buffer. Crude cellular membrane homogenates were stored at −80° C. until further use. On the day of experiments, frozen homogenates were thawed at room temperature, gently triturated 10 times and subsequently dounce homogenized in a 7 ml glass tissue grinder (Wheaton Science Products, Millville, N.J.) by 5 strokes while on ice. […]
(Displacement assays read how much labelled ligand stays bound in the presence of the test substance.)

T1 sequence (P47746 whole entry): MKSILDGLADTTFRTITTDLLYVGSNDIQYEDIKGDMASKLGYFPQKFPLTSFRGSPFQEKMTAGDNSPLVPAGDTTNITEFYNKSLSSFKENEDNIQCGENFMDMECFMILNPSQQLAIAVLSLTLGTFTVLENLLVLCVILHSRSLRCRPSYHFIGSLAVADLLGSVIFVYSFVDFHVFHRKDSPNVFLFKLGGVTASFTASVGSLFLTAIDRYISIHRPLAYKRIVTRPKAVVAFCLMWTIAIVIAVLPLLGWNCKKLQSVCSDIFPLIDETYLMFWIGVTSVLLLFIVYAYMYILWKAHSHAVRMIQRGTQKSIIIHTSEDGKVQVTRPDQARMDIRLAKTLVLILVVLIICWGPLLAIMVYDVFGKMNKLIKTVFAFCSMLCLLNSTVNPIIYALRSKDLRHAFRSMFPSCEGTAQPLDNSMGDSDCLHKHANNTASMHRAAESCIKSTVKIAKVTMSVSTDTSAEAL

Regarding `CCn1c(C)c(C(=O)c2ccc(C)c3ccccc23)c2ccccc21` [JWH-451, 1-Ethyl-2-methyl-3-(4-methyl-1-napthoyl)indole], the “viability of mouse neurons in primary culture” value in series [1] is given as “did not affect the viability”. Moreover, the EC50 with U251, A172 and GBM8 was in the range of 2 to 4 µM. In addition, at CB1 (FIG. 2 (CB1 not shown)), the “competition for [3H]-CP55940 binding at CB1” value is recorded as “does not”. Besides, on CB1 (relative to WIN55212-2), the “lower affinity at CB1 receptors than WIN55212-2” value turned out to be 100 fold.
